Results from ChEMBL document CHEMBL6182926, “Design, Synthesis, and Biological Activity Evaluation of Deuterated Diphenyl Azole Alcohol-Based CYP51 Inhibitors” (J Med Chem, 2025).
Values after ≈ are worked out from the molar mass of the structure shown. Active and inactive are the calls of the source. No cut-off for these calls is given here.

Key:
Pichia kudriavzevii [1] = assay: Antifungal activity against Candida krusei AS 2.1045 assessed as inhibition of visible growth; assay type: functional
Nakaseomyces glabratus [2] = assay: Antifungal activity against Clinical isolate Candida glabrata assessed as inhibition of visible growth; assay type: functional
Cryptococcus neoformans [3] = assay: Antifungal activity against Cryptococcus neoformans CGMCC 2.3161 assessed as inhibition of visible growth; assay type: functional
[4] = Metabolic stability in human liver microsomes assessed as compound remaining measured up to 60 mins by LC-MS/MS analysis; assay type: ADME, Microsome; settings: for remaining at 1 h: liver microsomes, read-out: Activity
Aspergillus fumigatus = assay: Antifungal activity against Aspergillus fumigatus CGMCC 3.7795 assessed as inhibition of visible growth; assay type: functional
Candida albicans [5] = assay: Antifungal activity against Candida albicans SC 5314 assessed as inhibition of visible growth; assay type: functional
[6] = Metabolic stability in human liver microsomes assessed as half life by LC-MS/MS analysis; assay type: ADME, Microsome; settings: for half-life: liver microsomes
Candida tropicalis = assay: Antifungal activity against Candida tropicalis CGMCC 2.3739 assessed as inhibition of visible growth; assay type: functional
Candida albicans [7] = assay: Antifungal activity against Candida albicans CPCC 400616 assessed as inhibition of visible growth; assay type: functional
Candida parapsilosis = assay: Antifungal activity against Candida parapsilosis GIM 2.190 assessed as inhibition of visible growth; assay type: functional; settings: Lodderomyces parapsilosis
[8] = Cytotoxicity against human SH-SY5Y cells measured after 72 hrs by MTT assay; assay type: toxicity, cell-based
Candida albicans [9] = assay: Antifungal activity against Candida albicans SC5314 assessed as reduction in Obtusifoliol at 4 ug/ml measured after 18 hrs incubation by gas chromatography-mass spectrometry (GCMS) analysis; assay type: functional; parameters: scale not given: the % may be the effect or the level left; settings: dose 4 µg/ml
[10] = Cytotoxicity against human HUVEC cells measured after 72 hrs by MTT assay; assay type: toxicity, cell-based
Cryptococcus neoformans [11] = assay: Antifungal activity against Cryptococcus neoformans CGMCC 2.3161 assessed as reduction in Eburicol at 8 ug/ml measured after 18 hrs incubation by gas chromatography-mass spectrometry (GCMS) analysis; assay type: functional; parameters: scale not given: the % may be the effect or the level left; settings: dose 8 µg/ml
Cryptococcus neoformans [12] = assay: Fungicidal activity against Cryptococcus neoformans CGMCC 2.3161 assessed as concentration of colonies (< 5) measured after 48 hrs incubation; assay type: functional
Candida albicans [13] = assay: Antifungal activity against Candida albicans SC5314 assessed as reduction in ergosterol at 4 ug/ml measured after 18 hrs incubation by gas chromatography-mass spectrometry (GCMS) analysis (reference value: 96.72%); assay type: functional; parameters: scale not given: the % may be the effect or the level left; settings: dose 4 µg/ml
Candida albicans [14] = assay: Antifungal activity against Candida albicans SC5314 assessed as reduction in Lanosterol at 4 ug/ml measured after 18 hrs incubation by gas chromatography-mass spectrometry (GCMS) analysis; assay type: functional; parameters: scale not given: the % may be the effect or the level left; settings: dose 4 µg/ml
Candida albicans [15] = assay: Antifungal activity against Candida albicans SC5314 assessed as reduction in other sterol at 4 ug/ml measured after 18 hrs incubation by gas chromatography-mass spectrometry (GCMS) analysis (reference value: 2.59%); assay type: functional; parameters: scale not given: the % may be the effect or the level left; settings: dose 4 µg/ml
Cryptococcus neoformans [16] = assay: Inhibition of biofilm formation in Cryptococcus neoformans CGMCC 2.3161 assessed as inhibition of metabolic activity of biofilm measured after 24 hrs by XTT assay; assay type: functional
Cell membrane [17] = assay: Antifungal activity against Candida albicans SC5314 assessed as reduction in Eburicol at 4 ug/ml measured after 18 hrs incubation by gas chromatography-mass spectrometry (GCMS) analysis; assay type: subcellular; parameters: scale not given: the % may be the effect or the level left; settings: dose 4.0 µg/ml
Candida albicans [18] = assay: In vivo anti-resistant activity against fluconazole-resistant Candida albicans strain 17# infected in cyclophosphamide-immunosuppressed ICR mouse model assessed as reduction in fungal burden in kidney at 1 to 5 mg/kg, oral gavage for 5 days post infection; assay type: functional, organism-based; settings: dose 1-5 mg/kg, time 5.0 day
Nakaseomyces glabratus [19] = assay: Inhibition of biofilm formation in clinical isolate Candida glabrata assessed as inhibition of metabolic activity of biofilm measured after 24 hrs by XTT assay; assay type: functional
Cell membrane [20] = assay: Induction of loss of cell membrane integrity in Candida albicans SC5314 assessed as irregular cell morphology at 16 microg/ml measured after 48 hrs incubation by transmission electron microscopy; assay type: subcellular; settings: dose 16.0 µg/ml
Cryptococcus neoformans [21] = assay: Antifungal activity against Cryptococcus neoformans CGMCC 2.3161 assessed as reduction in other sterol at 8 ug/ml measured after 18 hrs incubation by gas chromatography-mass spectrometry (GCMS) analysis (reference value: 2.20%); assay type: functional; parameters: scale not given: the % may be the effect or the level left; settings: dose 8 µg/ml
Candida albicans [22] = assay: Antifungal activity against Candida albicans SC5314 assessed as reduction in 14alpha-methylsterols at 4 ug/ml measured after 18 hrs incubation by gas chromatography-mass spectrometry (GCMS) analysis (reference value: 0.69%); assay type: functional; parameters: scale not given: the % may be the effect or the level left; settings: dose 4 µg/ml
Nakaseomyces glabratus [23] = assay: Fungicidal activity against Clinical isolate Candida glabrata assessed as concentration of colonies (< 5) measured after 48 hrs incubation; assay type: functional
Cryptococcus neoformans [24] = assay: Antifungal activity against Cryptococcus neoformans CGMCC 2.3161 assessed as reduction in ergosterol at 8 ug/ml measured after 18 hrs incubation by gas chromatography-mass spectrometry (GCMS) analysis (reference value: 94.48%); assay type: functional; parameters: scale not given: the % may be the effect or the level left; settings: dose 8 µg/ml
Cryptococcus neoformans [25] = assay: Antifungal activity against Cryptococcus neoformans CGMCC 2.3161 assessed as reduction in Obtusifoliol at 8 ug/ml measured after 18 hrs incubation by gas chromatography-mass spectrometry (GCMS) analysis; assay type: functional; parameters: scale not given: the % may be the effect or the level left; settings: dose 8 µg/ml
Pichia kudriavzevii [26] = assay: Fungicidal activity against Candida krusei AS 2.1045 assessed as concentration of colonies (< 5) measured after 48 hrs incubation; assay type: functional
Candida albicans [27] = assay: In vivo antifungal activity against Candida albicans SC5314 infected in cyclophosphamide-immunosuppressed ICR mouse model assessed as reduction in fungal burden in kidney at 5 mg/kg, oral gavage for 5 days post infection; assay type: functional, organism-based; settings: time 5.0 day, tested as the 2H-labelled form
Mus musculus = assay: In vivo antifungal activity against Candida albicans SC5314 infected in ICR mouse model assessed as mouse survival at 1 mg/kg, oral gavage measured for 21 days post infection; assay type: functional, organism-based; settings: time 21.0 day, tested as the 2H-labelled form
Candida albicans [28] = assay: In vivo anti-resistant activity against fluconazole-resistant Candida albicans strain 17# infected in cyclophosphamide-immunosuppressed ICR mouse model assessed as reduction in fungal burden in kidney at 10 mg/kg, oral gavage for 5 days post infection; assay type: functional, organism-based; settings: time 5.0 day, tested as the 2H-labelled form
Candida albicans [29] = assay: In vivo antifungal activity against Candida albicans SC5314 infected in cyclophosphamide-immunosuppressed ICR mouse model assessed as reduction in fungal burden in kidney at 1 mg/kg, oral gavage for 5 days post infection; assay type: functional, organism-based; settings: time 5.0 day, tested as the 2H-labelled form
Candida albicans [30] = assay: In vivo anti-resistant activity against fluconazole-resistant Candida albicans strain 17# infected in cyclophosphamide-immunosuppressed ICR mouse model assessed as reduction in fungal burden in kidney at 5 mg/kg, oral gavage for 5 days post infection; assay type: functional, organism-based; settings: time 5.0 day, tested as the 2H-labelled form
Cell membrane [31] = assay: Induction of loss of cell membrane integrity in Candida albicans SC5314 assessed as leakage of intracellular components into the extracellular environment at 16 microg/ml measured after 48 hrs incubation by transmission electron microscopy; assay type: subcellular; settings: dose 16.0 µg/ml
Candida albicans [32] = assay: Antifungal activity against Candida albicans CPCC 400616 assessed as suppression of hyphal formation (inhibition of yeast to hypha transition) at 2 microg/ml measured after 4 hrs by inverted microscopy; assay type: functional, organism-based; settings: dose 2.0 µg/ml, tested as the 2H-labelled form

Compound | MIC80 (Pichia kudriavzevii [1]) | MIC80 (Nakaseomyces glabratus [2]) | MIC80 (Cryptococcus neoformans [3]) | remaining at 1 h [4] | MIC80 (Aspergillus fumigatus) | MIC80 (Candida albicans [5]) | half-life [6] | MIC80 (Candida tropicalis) | MIC80 (Candida albicans [7]) | MIC80 (Candida parapsilosis) | also measured
[2H]C([2H])([2H])N(Cc1ccc(-c2ccc(C(F)(F)F)cc2)cc1)[C@H](C)[C@](O)(Cn1cncn1)c1ccc(F)cc1F | 0.012 µg/mL (≈ 0.0231 µM) | 0.012 µg/mL (≈ 0.0231 µM) | 0.012 µg/mL (≈ 0.0231 µM) | 29% | 0.025 µg/mL (≈ 0.0481 µM) | 0.006 µg/mL (≈ 0.0115 µM) | 35.1 min | 0.006 µg/mL (≈ 0.0115 µM) | 0.006 µg/mL (≈ 0.0115 µM) | 0.006 µg/mL (≈ 0.0115 µM) | 
CN(Cc1ccc(-c2ccc(Cl)cc2)cc1)CC(O)(Cn1cncn1)c1ccc(F)cc1F (stereo not drawn) | 0.012 µg/mL (≈ 0.0256 µM) | 0.012 µg/mL (≈ 0.0256 µM) | 0.012 µg/mL (≈ 0.0256 µM) |  |  | 0.006 µg/mL (≈ 0.0128 µM) |  | 0.006 µg/mL (≈ 0.0128 µM) | 0.006 µg/mL (≈ 0.0128 µM) | 0.006 µg/mL (≈ 0.0128 µM) | Activity ([4]; microsomes, 1 h): 21.3%; t1/2 ([6]; microsomes): 9.23 min
[2H]C([2H])([2H])N(Cc1ccc(-c2ccc(Cl)c(F)c2)cc1)[C@H](C)[C@](O)(Cn1cncn1)c1ccc(F)cc1F | 0.006 µg/mL (≈ 0.0119 µM) | 0.012 µg/mL (≈ 0.0238 µM) | 0.006 µg/mL (≈ 0.0119 µM) | 4.91% | 0.006 µg/mL (≈ 0.0119 µM) | 0.006 µg/mL (≈ 0.0119 µM) | 14.1 min | 0.006 µg/mL (≈ 0.0119 µM) | 0.006 µg/mL (≈ 0.0119 µM) | 0.006 µg/mL (≈ 0.0119 µM) | 
OC(Cn1cncn1)(Cn1cncn1)c1ccc(F)cc1F [FLUCONAZOLE] | 8 µg/mL (≈ 26.1 µM) | 32 µg/mL (≈ 104 µM) | 16 µg/mL (≈ 52.2 µM) |  | > 64 µg/mL | 0.25 µg/mL (≈ 0.816 µM) |  | 0.25 µg/mL (≈ 0.816 µM) | 0.5 µg/mL (≈ 1.63 µM) | 1 µg/mL (≈ 3.27 µM) | IC50 at 72 h [8]: > 100 µM; Activity (Candida albicans [9]): 18.55%; IC50 at 72 h [10]: > 40 µM; Activity (Cryptococcus neoformans [11]): 5.92%; MFC (Cryptococcus neoformans [12]): > 128 µg/mL; Activity (Candida albicans [13]): 3.81%; Activity (Candida albicans [14]): 18.35%; Activity (Candida albicans [15]): 13.1%; MIC50 (Cryptococcus neoformans [16]): 32 µg/mL (≈ 104 µM); Activity (Cell membrane [17]): 49.5%; Activity (Candida albicans [18]): inactive; MIC50 (Nakaseomyces glabratus [19]): 0.12 µg/mL (≈ 0.392 µM); Activity (Cell membrane [20]): Active; Activity (Cryptococcus neoformans [21]): 3.51%; Activity (Candida albicans [22]): 8.46%; MFC (Nakaseomyces glabratus [23]): > 128 µg/mL; Activity (Cryptococcus neoformans [24]): 86.73%; Activity (Cryptococcus neoformans [25]): 3.85%; MFC (Pichia kudriavzevii [26]): > 128 µg/mL
CN(Cc1ccc(N2CCN(Cc3ccc(F)cc3Br)CC2)cc1)CC(O)(Cn1cncn1)c1ccc(F)cc1F (stereo not drawn) | 0.05 µg/mL (≈ 0.0794 µM) | 0.05 µg/mL (≈ 0.0794 µM) | 0.012 µg/mL (≈ 0.0191 µM) | 0.936% | 0.05 µg/mL (≈ 0.0794 µM) | 0.006 µg/mL (≈ 0.00953 µM) | 2.89 min | 0.006 µg/mL (≈ 0.00953 µM) | 0.006 µg/mL (≈ 0.00953 µM) | 0.006 µg/mL (≈ 0.00953 µM) | IC50 at 72 h [10]: 21 µM
[2H]C([2H])([2H])N(Cc1ccc(-c2ccc(Cl)cc2)nc1)[C@H](C)[C@](O)(Cn1cncn1)c1ccc(F)cc1F | 0.012 µg/mL (≈ 0.0246 µM) | 0.012 µg/mL (≈ 0.0246 µM) | 0.006 µg/mL (≈ 0.0123 µM) | 1.07% | 0.05 µg/mL (≈ 0.103 µM) | 0.006 µg/mL (≈ 0.0123 µM) | 2.3 min | 0.006 µg/mL (≈ 0.0123 µM) | 0.006 µg/mL (≈ 0.0123 µM) | 0.006 µg/mL (≈ 0.0123 µM) | 
[2H]C([2H])([2H])N(Cc1ccc(-c2ccc(Cl)c(F)c2)cc1F)[C@H](C)[C@](O)(Cn1cncn1)c1ccc(F)cc1F | 0.025 µg/mL (≈ 0.0479 µM) | 0.025 µg/mL (≈ 0.0479 µM) | 0.025 µg/mL (≈ 0.0479 µM) |  | 0.05 µg/mL (≈ 0.0958 µM) | 0.012 µg/mL (≈ 0.023 µM) |  | 0.012 µg/mL (≈ 0.023 µM) | 0.012 µg/mL (≈ 0.023 µM) | 0.012 µg/mL (≈ 0.023 µM) | 
C[C@@H](N(C)Cc1ccc(-c2ccc(OC(F)(F)F)cc2)cc1)[C@](O)(Cn1cncn1)c1ccc(F)cc1F |  |  |  |  |  |  |  |  |  |  | Activity (Candida albicans [27]): Active; Activity (Mus musculus): inactive; Activity (Candida albicans [28]): Active; Compound Showed Far Superior Effect Than Fluconazole; Activity (Candida albicans [29]): Active; Low Dose Antifungal Activity Weaker Than Fluconazole (Positive Control); Activity (Candida albicans [30]): Active; Activity (Cell membrane [31]): Active; Activity (Cell membrane [20]; tested as the 2H-labelled form): Active; inhibition (Candida albicans [32]): Active
